Laboratory results published in paper PMC11697113, “The Hsc70 system maintains the synaptic SNARE protein SNAP-25 in an assembly-competent state and delays its aggregation [drawing 1]” (The Journal of Biological Chemistry, 2024).

Legend:
SNAP-25 [1] = assay: SNAP-25 aggregation kinetics by optical density; assay type: biochemical; conditions: SNAP-25 50 μM, Hsc70 5 μM, 37 °C, shaking 300 rpm, OD 360 nm, 20 mM phosphate buffer pH 7.4, 100 μM MgCl2, 100 mM KCl
Method: (§1) To test our hypothesis that Hsc70 inhibits SNAP-25 aggregation, we monitored the aggregation kinetics of recombinantly expressed SNAP-25 in the absence and presence of Hsc70 by following optical density at 360 nm (Fig. 2). […] This lag time was elongated to ∼65 h in the presence of Hsc70. In neurons, Hsc70 works in collaboration with its co-chaperone CSPα. […] (Fig. S2A). Apg2 is a member of the Hsp110 family, which is known to suppress protein aggregation ([36]). […] (Fig. S2B).
(§2) Figure 2 Hsc70 delays the aggregation of SNAP-25. Aggregation kinetics of SNAP-25 (50 μM) at 37 °C. Optical density of SNAP-25 was recorded at 360 nm in the absence (black) and in the presence of Hsc70 (5 μM, red), and Hsc70+CSPαJ (5 μM each, blue).
(§3) Aggregation of SNAP-25 at 50 μM was followed by measuring the A360 in a 96-well plate using a BioTek plate reader (BioTek), at 37 °C with shaking at 300 rpm, in the absence and presence of Hsc70 and CSPαJ at 5 μM each, and Apg2 at 0.5 μM. The aggregation buffer included 20 mM phosphate buffer pH 7.4, 100 μM MgCl2, and 100 mM KCl, and an ATP-experiment was carried out using regeneration system (5 mM 2-phosphoenolpyruvate, 0.05 mg/ml pyruvate kinase, and 5 mM ATP), as described previously ([51]).
(§4) Figure SI 2. Apg2 enhances the effect of Hsc70 on SNAP-25. (A) Aggregation kinetics of SNAP-25 (50 μM) at 37 °C. OD600 of SNAP-25 was recorded in the absence (black) and in the presence of Hsc70, Hsc70+CSPa-J (blue) and Hsc70+CSPa-J+Apg2 (turquoise). […]
(§5) concentrations are SNAP-25 (50 μM), Hsc70 (5 μM), CSPa-J (5 μM) and Apg2 (0.5 μM).
(§6) (B) Aggregation kinetics of SNAP-25 (50 μM) at 37 °C. OD600 of SNAP-25 was recorded in the absence (black) and in the presence of Apg2 (blue). […]

[2] = SNAP-25 aggregation kinetics by optical density; assay type: biochemical; conditions: without SNAP-25, 37 °C
Method: as §1, §2, §3, §4, §5, §6

SNAP-25 [3] = assay: Far-UV CD; assay type: physicochemical; conditions: far-UV CD 200–250 nm, 22 °C (Fig. S1)
Method: SNAP-25 has four native cysteines that are palmitoylated upon interaction with the membrane. […] For all of our studies, the SNAP-25 CS mutant was used unless otherwise mentioned.
The far-UV CD spectra (200–250 nm) were recorded on a Jasco J-1500 Circular Dichroism Spectrophotometer at 22 °C. The SNAP-25 WT, SNAP-25, and mixture of SNAP-25 and Hsc70 were taken in a 1 mm path length quartz cuvette. Figures show the average of ten scans where the buffer baselines were subtracted. Data were plotted using software using the Origin (Pro) program (OriginLab Corp).

[4] = tested on: SNARE complex with syntaxin and synaptobrevin; assay: SDS-resistant SNARE complex formation (SDS-PAGE); assay type: biochemical; conditions: with Hsc70, mixed with syntaxin and synaptobrevin, 1 M NaCl, 4 °C
Method: We took aliquots of SNAP-25 at different time points of the aggregation reaction (at 0 h, in lag phase and at 64 h in the log or saturation phase, Fig. 2A) and mixed them with the SNARE motifs of syntaxin and synaptobrevin to allow the formation of the SNARE complex.
Figure 6 Hsc70 facilitates incorporation of SNAP-25 into the SNARE complex in vitro. SDS-PAGE of SNAP-25 taken from the aggregation reactions (Fig. 2) at 0 h and 64 h after the initiation, without (left) and with Hsc70 (right), and mixed with syntaxin and synaptobrevin for the time indicated below each SDS-PAGE. SNAP-25 is expressed and purified from E. coli; a minor amount of the bacterial Hsp70 homolog DnaK (∼70 kDa) may copurify with SNAP-25, explaining the presence of higher molecular weight bands, with its proteolysis potentially occurring during ∼64-h SNAP-25 aggregation reactions. For synaptobrevin, we attribute the higher molecular weight bands to incomplete cleavage of GST-tagged synaptobrevin.
The SNARE motifs were mixed in an equimolar ratio in the following order: synaptobrevin-2 (29–93), syntaxin-1A (191–253), and SNAP-25 taken from the aggregation reaction, in the presence of 1 M NaCl. The assembly reaction was incubated at 4 °C overnight while rotating. The SNARE motifs were concentrated using a 30-kDa molecular weight cutoff Amicon centrifugation filters and run on 4 to 20% gradient SDS-PAGE.

Hsc70 [5] = target: T1, Hsc70 (Homo sapiens, UniProt P11142); assay: ATPase activity of Hsc70 (malachite green); assay type: biochemical; conditions: no peptide; "usually about"
T1 construct: 6X His-tag (TEV-cleavable) (cleaved yes); made in house; host or cells: E. coli Rosetta (DE3)
T1 sequence (P11142 whole entry): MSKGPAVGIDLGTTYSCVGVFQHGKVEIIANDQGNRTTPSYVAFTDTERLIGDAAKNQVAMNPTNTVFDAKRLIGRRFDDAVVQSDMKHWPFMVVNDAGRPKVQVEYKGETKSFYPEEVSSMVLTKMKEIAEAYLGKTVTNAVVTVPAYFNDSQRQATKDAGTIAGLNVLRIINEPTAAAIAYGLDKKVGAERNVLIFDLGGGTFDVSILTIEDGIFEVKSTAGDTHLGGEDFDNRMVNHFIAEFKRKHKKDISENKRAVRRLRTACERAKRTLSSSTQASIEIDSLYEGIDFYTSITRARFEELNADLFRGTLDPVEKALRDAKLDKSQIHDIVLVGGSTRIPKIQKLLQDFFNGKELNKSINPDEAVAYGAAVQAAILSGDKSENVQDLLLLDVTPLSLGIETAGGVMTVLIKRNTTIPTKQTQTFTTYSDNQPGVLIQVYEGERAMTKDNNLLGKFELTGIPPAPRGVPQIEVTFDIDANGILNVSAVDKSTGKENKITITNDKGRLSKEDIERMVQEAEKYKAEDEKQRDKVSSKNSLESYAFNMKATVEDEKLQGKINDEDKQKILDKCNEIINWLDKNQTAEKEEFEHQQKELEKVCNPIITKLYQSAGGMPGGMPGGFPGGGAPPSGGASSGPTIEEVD
Source text: Hsp70s consist of an nucleotide-binding domain (NBD) and a substrate-binding domain (SBD). Hsc70 works using an allosteric mechanism whereby substrate binding at the SBD stimulates the ATP hydrolysis rate at the nucleotide-binding domain. The basal ATPase rate of Hsp70 is low, usually about 0.05 ± 0.009 mol Pi/mol protein, and increases when it is stimulated by binding of a peptide to the canonical site in the SBD. We measured the ability of SNAP-25 peptides SNNP and SNCP to stimulate the ATPase rate of Hsc70 (Fig. 5A). SNNP and SNCP binding cause a 1.5-fold increase of the Hsc70 ATPase rate over basal (observed rates upon addition of SNNP and SNCP were 0.089 ± 0.008 and 0.080 ± 0.005, respectively). In order to confirm that peptides are indeed binding at the canonical binding site of Hsc70, we used the V438F mutant that blocks the binding site ([37]). […] The addition of CSPαJ stimulates the ATPase activity of Hsc70 ∼4-fold with and without peptides.
Figure 5 SNN and SNC peptides interact with the canonical substrate-binding site of Hsc70.A, ATPase activity of Hsc70 (2 μM) in the absence (gray) and presence of 200 μM SNNP (orange) and SNCP (green) peptides. Error bars represent the SDs from three independent experiments. B, binding of SNAP-25 (black), SNNP (orange), LoopP (blue), and SNCP (green) peptides to Hsc70 followed by competition for FITC-p5 peptide using fluorescence anisotropy. Increasing concentrations of the competitors were added to a complex of Hsc70 (5 μM) and FITC-p5 peptide (50 nM). Error bars represent SDs from three independent experiments. […]
We performed ATPase assays to observe the activity of Hsc70 in the presence of SNAP25 peptides. […] Absorbance readings were taken at 620 nm using a BioTek plate reader. […]
(C) ATPase activity of Hsc70 (at 2 μM) in the absence (grey) and presence of 200 μM SNNP (orange) and L(Loop)-SNCP (green) peptides, and in the absence and presence of CSPa-J and CSPa-J/Apg2. The statistical significance was calculated using one-way ANOVA test with Sidak’s multiple comparison and the Hsc70 ATPase activity […]

Hsc70 [6] = target: T1, Hsc70; assay: Competition binding vs FITC-p5 by fluorescence anisotropy; conditions: Hsc70 5 μM, FITC-p5 50 nM, competitor 0 to 200 μM, phosphate buffer pH 7.4, overnight 4 °C, fluorescence anisotropy 485/516 nm, three independent experiments
Method: Figure 3 Hsc70 forms complexes with SNAP-25.A, native PAGE of SNAP-25 (10 μM) in the presence and absence of Hsc70 (2 μM). The difference in signal intensity of His-SNAP25 probed with antibody is likely due to altered epitope exposure upon formation of the SNAP-25-Hsc70 complex. B, binding of SNAP-25 (black), SNAP-25 SNN (SNNFR, orange), and SNC (SNCFR, green)) fragments to Hsc70 by competition followed by fluorescence anisotropy. Increasing concentrations of the competitors were added to a complex of Hsc70 (5 μM) and FITC-p5 peptide (50 nM). Error bars represent SDs from three independent experiments.
To pin down the regions in SNAP-25 where Hsc70 binds we expressed the individual SNN and SNC fragments of SNAP-25 and tested their ability to compete for Hsc70 binding to an FITC-labeled p5 peptide (ALLLSAPRR).
Figure 5 SNN and SNC peptides interact with the canonical substrate-binding site of Hsc70.A, ATPase activity of Hsc70 (2 μM) in the absence (gray) and presence of 200 μM SNNP (orange) and SNCP (green) peptides. Error bars represent the SDs from three independent experiments. B, binding of SNAP-25 (black), SNNP (orange), LoopP (blue), and SNCP (green) peptides to Hsc70 followed by competition for FITC-p5 peptide using fluorescence anisotropy. Increasing concentrations of the competitors were added to a complex of Hsc70 (5 μM) and FITC-p5 peptide (50 nM). Error bars represent SDs from three independent experiments. C, structure of the canonical substrate-binding site of human HspA1 (PDB 4po2) illustrating the location of Hsc70 residues Ile 403 and Ile 440 in red and green spheres, respectively (N.B., Hsc70 and HspA1 share […] sequence identity). The SBD is shown in gray, bound substrate in cyan sticks, and the side chain of the residue occupying the 0th position in the chaperone (“anchor residue”) in orange ball and sticks. For better visualization of the substrate-binding site, residues 512 to 613, 405 to 408, and 431 were removed in this illustration of the structure. D, the Ile region of the ^1H-^13 C HMQC spectra of Ile-^13CH3-labeled Hsc70 (40 μM) in the absence (black) and in the presence of unlabeled SNNP (orange) and SNCP (green) peptides (200 μM).
To further characterize the binding of the SNAP-25 peptides to Hsc70 we used competition assays as above. Peptides SNNP, LOOPP, and SNCP were titrated against the protein-peptide complex of Hsc70 and FITC-p5 and fluorescence anisotropy was monitored to assess how well the SNAP-25 peptides displaced the model peptide.
Direct binding between the p5 peptide (QSRLLLSAPRRAA) and Hsc70 was carried out as described previously ([52]). […] Fluorescence anisotropy was measured in a BioTek plate reader (BioTek) with excitation at 485 nm and emission at 516 nm.
The measured anisotropy values were converted to fraction bound (fb) using the equation: fb=(r−r0)/(rb−r0) where r is the anisotropy value at any point, r0 is the anisotropy value of FITC-p5 in the absence of Hsc70, and rb is the anisotropy value of FITC-p5 when fully bound to Hsc70. […]
For competition assays, the concentrations of Hsc70 and FITC-P5 were kept constant at 5 μM and 50 nM, respectively, and the competitor substrate was titrated from 0 to 200 μM in phosphate buffer. […] Fluorescent anisotropy was measured as described above. […]

With heat shock cognate 70 [Hsc70] the “lag time of SNAP-25 aggregation in the presence of Hsc70” value (SNAP-25 [1]) was roughly 65 h, the “aggregation of the chaperone alone” value ([2]; OD 360 nm (Fig. 2)) was “no aggregation” and the “aggregation of the chaperone alone” value ([2]; OD600 (Fig. S2A), Hsc70 5 μM, CSPa-J 5 μM, Apg2 0.5 μM) was “exhibit no aggregation”. The “conformational change upon Hsc70-SNAP-25 interaction” value (SNAP-25 [3]) was “no significant conformational change” and the “SNARE complex formation by SNAP-25 taken at 0 h and 64 h of aggregation in the presence of Hsc70” value [4] was “can productively form a SNARE complex”.

With 70-kDa heat shock protein [Hsp70] the “basal ATPase rate” value (Hsc70 [5]) was “about 0.05 ± 0.009 mol Pi/mol protein”.

In the case of SNN: SNAP-25 SNN fragment, SNNFR 11–82, the “competition with p5 peptide for binding to Hsc70” value (Hsc70 [6]) is reported as “competed with p5 peptide for binding to Hsc70”.

For SNC: SNAP-25 SNC fragment, SNCFR141–201, the “competition with p5 peptide for binding to Hsc70” value (Hsc70 [6]) was “competed with p5 peptide for binding to Hsc70”.
